Experimental data reported in PMC7729398, “Unravelling the intricate cooperativity of subunit gating in P2X2 ion channels” (Scientific Reports, 2020).
Numbering of substitutions follows the chain as printed.

Experiments:
P2X2 receptor = target: T1, P2X2 receptor (Rattus norvegicus, UniProt P49653); test: whole-cell and single-channel (cell-attached) patch-clamp, fast ATP jumps, global kinetic fit; assay type: cell-based
T1 construct: gene P2rx2; wild type rat P2X2 in HEK293 (Flp-In T-REx 293) cells
T1 sequence (P49653 1-472): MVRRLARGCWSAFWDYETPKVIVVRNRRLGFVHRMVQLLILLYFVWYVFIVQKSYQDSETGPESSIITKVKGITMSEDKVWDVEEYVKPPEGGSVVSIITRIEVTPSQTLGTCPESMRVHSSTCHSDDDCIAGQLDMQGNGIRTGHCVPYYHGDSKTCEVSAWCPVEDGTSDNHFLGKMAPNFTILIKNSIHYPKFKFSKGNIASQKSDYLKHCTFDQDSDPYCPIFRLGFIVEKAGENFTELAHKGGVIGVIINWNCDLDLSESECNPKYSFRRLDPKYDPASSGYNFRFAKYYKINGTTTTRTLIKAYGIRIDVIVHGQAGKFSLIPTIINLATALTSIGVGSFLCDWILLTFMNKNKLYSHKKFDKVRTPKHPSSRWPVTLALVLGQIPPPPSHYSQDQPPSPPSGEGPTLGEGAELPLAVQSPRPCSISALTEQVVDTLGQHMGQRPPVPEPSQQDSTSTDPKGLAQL

P2X2 receptor H319K = target: T2, P2X2 receptor H319K (Rattus norvegicus, UniProt P49653, H319K); test: as above; assay type: cell-based
T2 construct: gene P2rx2; rat P2X2 H319K in HEK293 (Flp-In T-REx 293) cells
T2 sequence (P49653 1-472 H319K): T1 sequence (P49653 1-472) with H319K

## Nc1ncnc2c1ncn2[C@@H]1O[C@H](COP(=O)(O)OP(=O)(O)OP(=O)(O)O)[C@@H](O)[C@H]1O [ATP]
P2X2 receptor
  EC50: 1.2 µM
P2X2 receptor H319K
  EC50: ~ 30 nM
